The source of these data is patent US12721821B2, “Plant essential oil amino acid composition and preparation method therefor” (COCRYSTAL TECHNOLOGY (JIAXING) CO., LTD, priority 2021, dated 2026).

The series in a line: Vapor pressure from thermogravimetric analysis (TGA), kept at 80° C. for 100 minutes. The series is classed as physicochemical. The following applies: calculated from weight loss rate. As to the method: For thermogravimetric analysis (TGA) method, instrument model: Netzsch TG 209F3 thermogravimetric analyzer detection, temperature: 80° C. for 100 minutes, purge gas: 25 mL/min.
Thymol and/or carvacrol and L-proline and/or sarcosine were added to a ball mill according to the compositions shown in Table 2, and vibrated at a vibrating frequency of 30 Hz for a vibrating time of 20 minutes to obtain the compositions. The compositions were subjected to thermogravimetric analysis (TGA), kept at 80° C. for 100 minutes, and the vapor pressure of thymol and/or carvacrol and the compositions thereof were calculated according to the formula:
[formula] • wherein m is the mass of the sample at time t, −dm/dt is the weight loss rate per unit area, p is the saturated vapor pressure, α is the vaporization constant, T is the absolute temperature, R is the gas constant, and M is the molecule mass of the evaporated substance. Under vacuum condition, α=1. α can be considered as a constant when a protective gas is present.

As for `Cc1ccc(C(C)C)c(O)c1` [thymol], the “vapor pressure (Pa) at 80° C.” value is recorded as 333 Pa.
As for `Cc1ccc(C(C)C)cc1O` [carvacrol], the “vapor pressure (Pa) at 80° C.” value is given as 242 Pa.
